Experimental data reported in PMC7011920, “Synthesis and biological evaluation of stilbene derivatives coupled to NO donors as potential antidiabetic agents” (Journal of Enzyme Inhibition and Medicinal Chemistry, 2018).

Experiments:
[1] = test system: STZ-induced diabetic mice; assay: Acute hypoglycaemic assay in STZ-diabetic mice; type: in vivo; settings: for Blood glucose concentration: mean ± SEM, six mice
Experimental: The antidiabetic activity was determined by using a standard method. […] Especially, compound 7c caused significant decreases in blood glucose levels when compared with vehicle-treated groups (p < .05). […] In STZ-diabetic animals, the hypoglycaemic effect of pterostilbene (40 mg/kg of bw) was larger than 50% since 5 h and persisted throughout the experiment. Target compound 7c (40 mg/kg of bw) caused significant decreases in blood glucose levels compared with pterostilbene (40 mg/kg of bw).
Type II DM was induced in mice by a single intraperitoneal injection of freshly prepared STZ (Sigma Aldrich, St. Louis, MO) dissolved in 0.1 M citrate buffer, pH 4.5, in a […] of 120 mg/kg of bw. After seven days of STZ administration, blood glucose levels of each mouse were determined. Mice with blood glucose levels higher than 11 mM were considered diabetic and were included in the study.
STZ-induced diabetic mice and normal mice were placed in single cages with wire-net floors and deprived of food for 12 h before experimentation but allowed free access to tap water throughout. The compounds (at the doses of 10, 40, and 100 mg/kg of bw) were suspended in 0.05% Tween-80 in saline solution. Glibenclamide (10 mg/kg of bw) was suspended in the same vehicle. The target compounds were freshly prepared immediately before experimentation and administered by the intragastrical route at the doses of 10 ml/kg of bw. Control mice received only the vehicle (0.05% Tween-80 in saline solution) by the same route. Blood glucose levels were measured at 0, 1.5, 3, 5, 7, and 9 h after drugs administration.

[2] = Oral toxicity to mice (Lorke's method); settings: both sexes, mouse, in vivo, Kunming mice, 14 days observation
Experimental: With reference to Lorke’s method, Kunming mice were used as targets to estimate oral toxicity of each compound to mice. We select compounds 3c, 3e, and 7c at concentrations of 10, 100, and 1000 mg/kg to test their oral toxicity in the first phase, and 1600, 2900, and 5000 mg/kg at the second phase. […] No death and no appetite-suppressant effect were detected in the tested mice in 14 days. […].
Experiments were performed on Kunming mice (male and female half, body weight range, 25–30 g). Mice were housed in a climate and light controlled room with a 12 h light/dark cycle. Twelve hours before experiments, food was withheld, but animals had free access to drinking water. The compounds were suspended in vehicle (Tween-80, 0.2% in saline). The concentrations were adjusted to orally administrate 0.2 ml/10 g of bw (body weight). Mice were treated in two phases. In the first, intragastric doses of 10, 100 and 1000 mg/kg of bw of compounds were administered. On the second, the doses were adjusted to 1600, 2900 and 5000 mg/kg of bw of compounds. In both phases, mice were observed daily in a period of 14 days for mortality, toxic effects and/or changes in behavioural pattern. At the end of the experiments, the mice were sacrificed in a CO2 chamber.

[3] = test system: AGEs (advanced glycation end products) formation; assay: In vitro inhibitory activity of AGEs formation (bovine serum albumin/glucose, fluorescence)
Experimental: Advanced glycation end products are a group of complex and heterogeneous compounds, which are implicated in a number of biochemical abnormalities associated with diabetes[21]^,[22]. Therefore, the discovery of AGEs inhibitors would be beneficial to the prevention and treatment of diabetic or other pathogenic complications.
To prepare the AGE reaction solution, 10 mg/ml of bovine serum albumin in 50 mM PBS (pH 7.4) was added to 0.2 M glucose, and 0.02% sodium azide was added to prevent bacterial growth. The reaction mixture (3 ml) was then mixed with various concentrations (0.5–1000 µg/ml) of the target compounds (1 ml) dissolved in DMSO. After incubating at 37 °C for 14 d, the fluorescence intensity of AGE was determined by a fluorospectrophotometer (PE, Cincinnati, OH) with excitation and emission wavelengths at 350 nm and 420 nm[30], respectively. All experiments were run in triplicate. Aminoguanidine hydrochloride was used as a reference compound. The inhibition rate of AGEs formation and the IC50 value of each sample were calculated according to the formula. Inhibition rate %={[(AC−AB)−(AS−ASB)]/(AC−AB)}×100% where AC is the absorbance of control group (1.0 ml glucose +1.0 ml bovine serum albumin +1.0 ml sodium azide +1.0 ml DMSO); AB is the absorbance of blank group (1.0 ml PBS +1.0 ml bovine serum albumin +1.0 ml sodium azide +1.0 ml DMSO); AS is the absorbance of sample group (1.0 ml glucose +1.0 ml bovine serum albumin +1.0 ml sodium azide +1.0 ml target compound solution or aminoguanidine hydrochloride solution); ASB is the absorbance of sample blank group (1.0 ml PBS +1.0 ml bovine serum albumin +1.0 ml sodium azide +1.0 ml target compound solution or aminoguanidine hydrochloride solution).

Compound: COc1cc(/C=C/c2ccc(OCCCCCCO[N+](=O)[O-])cc2)cc(OC)c1 [3c]
- Blood glucose concentration ([1]; dose 10 mg/kg per os, 0 h): 22.6 ± 7.0 mM
- Blood glucose concentration ([1]; dose 10 mg/kg per os, 1.5 h): 18.1 ± 7.3 mM
- % Variation of glycaemia ([1]; dose 10 mg/kg per os, 1.5 h vs 0 h): –20.13%
- Blood glucose concentration ([1]; dose 10 mg/kg per os, 3 h): 17.0 ± 6.6 mM
- % Variation of glycaemia ([1]; dose 10 mg/kg per os, 3 h vs 0 h): –24.78%
- Blood glucose concentration ([1]; dose 10 mg/kg per os, 5 h): 16.8 ± 6.1 mM
- % Variation of glycaemia ([1]; dose 10 mg/kg per os, 5 h vs 0 h): –25.66%
- Blood glucose concentration ([1]; dose 10 mg/kg per os, 7 h): 15.7 ± 4.3 mM
- % Variation of glycaemia ([1]; dose 10 mg/kg per os, 7 h vs 0 h): –30.53%
- Blood glucose concentration ([1]; dose 10 mg/kg per os, 9 h): 13.2 ± 3.5 mM
- % Variation of glycaemia ([1]; dose 10 mg/kg per os, 9 h vs 0 h): –41.59%
- Blood glucose concentration ([1]; dose 40 mg/kg per os, 0 h): 21.7 ± 5.7 mM
- Blood glucose concentration ([1]; dose 40 mg/kg per os, 1.5 h): 17.2 ± 5.6 mM
- % Variation of glycaemia ([1]; dose 40 mg/kg per os, 1.5 h vs 0 h): –20.74%
- Blood glucose concentration ([1]; dose 40 mg/kg per os, 3 h): 16.3 ± 7.5 mM
- % Variation of glycaemia ([1]; dose 40 mg/kg per os, 3 h vs 0 h): –25.04%
- Blood glucose concentration ([1]; dose 40 mg/kg per os, 5 h): 15.7 ± 6.4 mM
- % Variation of glycaemia ([1]; dose 40 mg/kg per os, 5 h vs 0 h): –27.57%
- Blood glucose concentration ([1]; dose 40 mg/kg per os, 7 h): 14.3 ± 9.6 mM
- % Variation of glycaemia ([1]; dose 40 mg/kg per os, 7 h vs 0 h): –34.02%
- Blood glucose concentration ([1]; dose 40 mg/kg per os, 9 h): 9.9 ± 4.6 mM
- % Variation of glycaemia ([1]; dose 40 mg/kg per os, 9 h vs 0 h): –54.30%
- Blood glucose concentration ([1]; dose 100 mg/kg per os, 0 h): 18.6 ± 1.9 mM
- Blood glucose concentration ([1]; dose 100 mg/kg per os, 1.5 h): 15.9 ± 3.6 mM
- % Variation of glycaemia ([1]; dose 100 mg/kg per os, 1.5 h vs 0 h): –14.34%
- Blood glucose concentration ([1]; dose 100 mg/kg per os, 3 h): 15.2 ± 3.0 mM
- % Variation of glycaemia ([1]; dose 100 mg/kg per os, 3 h vs 0 h): –18.28%
- Blood glucose concentration ([1]; dose 100 mg/kg per os, 5 h): 15.1 ± 3.7 mM
- % Variation of glycaemia ([1]; dose 100 mg/kg per os, 5 h vs 0 h): –19.00%
- Blood glucose concentration ([1]; dose 100 mg/kg per os, 7 h): 13.4 ± 4.7 mM
- % Variation of glycaemia ([1]; dose 100 mg/kg per os, 7 h vs 0 h): –28.23%
- Blood glucose concentration ([1]; dose 100 mg/kg per os, 9 h): 11.1 ± 3.0 mM
- % Variation of glycaemia ([1]; dose 100 mg/kg per os, 9 h vs 0 h): –40.32%
- LD50 at 14 days [2]: > 5000 mg/kg
- IC50 ([3]; 50% inhibition of fluorescence intensity of AGE relative to 0.1% DMSO, mean ± SD (n = 3)): 1.49 ± 0.2 µM
- AGEs formation inhibitory activity compared with positive reference AG ([3]; ratio to AG): over 100 folds
